# Residues, ends and D or L forms follow the SMILES beside them.
# Columns and labels:
# K pneumoniae = assay: Anti-bacterial activity in spiked plasma; assay type: cell-based; conditions: 2 h
# Protocol: (§1) The anti-bacterial activity of the peptide in the presence of homologous plasma and platelets were assessed. Platelet Concentrates (PCs) in bags were obtained and stored at room temperature as described earlier (Mohan, K. V. et al., (2010) Transfusion 50, 166-173). Plasma was isolated from the PC bag by collecting 25 ml of PCs and subjecting the sample to a low speed centrifugation step to separate PLT-rich plasma from plasma. For assays log phase cultures of bacteria grown in Luria-Bertani (LB) broth were centrifuged at 3000×g and suspended in 1×PBS pH7.4. Bacterial titers were estimated by measuring the optical density (OD) and microscopy. Approximately 10^5 CFU/ml of each bacterial strain was spiked into 0.1 ml of plasma or platelets and incubated with peptide at concentrations ranging from 50 to 0 μg/ml. Incubation was carried out at room temperature for 2 h on a shaker. At the end of 2-h exposure period, a fixed volume of the suspension was plated on NA plates, and incubating at 37° C. for 18 to 24 h. Bactericidal activity was measured by log-reduction by viable bacteria.
# E. coli [1] = assay: Anti-bacterial activity in spiked plasma; assay type: cell-based; conditions: 2 h
# Protocol: as §1
# P. aeruginosa cells = assay: Qdot-based fluorometry binding assay; conditions: EC5 50 μg/ml
# Protocol: (§2) The assay was carried out as described earlier (21,24). Bacterial cell suspensions at a concentration of 10^3 CFU were incubated with EC5 (50 μg/ml) in an eppendorf tube at room temperature for 60 min. Following three washes with 1×PBS pH 7.4 the pellet was resuspended in […] of 1:10,000 dilution of streptavidin-conjugated Q dots (QD 605) solution (Invitrogen, Gaithersburg, Md.). The fluorometric counts were measured using SYNERGY 4™ BioTek micro plate reader (BioTek Instruments, Winooski, Vt.).
# (§3) Binding of the peptide to the bacteria was detected using Qdot-nanocrystal cores conjugated to streptavidin. Analysis of the bacterial suspension binding to the peptide was performed in a micro-well plate using a fluorescence plate reader (SYNERGY 4™, Biotek, USA). Excitation was set to a spectral range of 360-485 nm and emission was at 605 nm. […] The analysis also confirmed that EC5 binds to P. aeruginosa cells.
# E. coli [2] = assay: Qdot-based fluorometry binding assay; conditions: EC5 50 μg/ml; p<0.0001
# Protocol: as §2, §3
smiles,measurement,setting,value
"CC[C@H](C)[C@H](NC(=O)[C@H](CCCCN)NC(=O)[C@H](CCCNC(=N)N)NC(=O)[C@H](Cc1ccccc1)NC(=O)[C@H](CC(C)C)NC(=O)[C@H](CC(C)C)NC(=O)[C@@H](N)CCCNC(=N)N)C(=O)N[C@@H](CCCNC(=N)N)C(=O)N[C@@H](CCCNC(=N)N)C(=O)N[C@@H](CC(C)C)C(=O)N[C@@H](CCCCN)C(=O)N[C@@H](CCCNC(=N)N)C(=O)O [EC5, RLLFRKIRRLKR] (H-RLLFRKIRRLKR-OH; N-terminus and C-terminus assumed)",reduction of K pneumoniae in plasma,K pneumoniae; EC5 25 μg/ml,around 1.5 log10
same,reduction of K pneumoniae in plasma,K pneumoniae; EC5 50 μg/ml,around 2.5 log10
same,reduction of E. coli in plasma,E. coli [1]; EC5 12.5 μg/ml,3.5 log10
same,reduction of E. coli in plasma,E. coli [1]; EC5 25 μg/ml,4.5 log10
same,"bactericidal activity in homologous plasma, in words",E. coli [1]; EC5 50 μg/ml,inhibited
same,reduction of E. coli in plasma,E. coli [1]; EC5 50 μg/ml,around 5 log10 CFU/ml
same,binding to P. aeruginosa cells (fluorometric counts),P. aeruginosa cells,binds
same,binding to E. coli (fluorometric counts),E. coli [2],able to bind

# Reference: patent publication US9243036B2, “Anti-microbial activity of synthetic peptides” (THE UNITED STATES OF AMERICA, as represented by the …, priority 2012, dated 2016)
